The values that follow come from patent USRE47689E1, “Compounds for treating spinal muscular atrophy” (PTC Therapeutics, Inc., priority 2011, dated 2019).

Read-outs that look alike come from different tables or passages of the source.

For series [1], the system named is SMN2 minigene (full length SMN2 minigene mRNA containing SMN2 exon 7). Kind of series: SMN2 minigene mRNA splicing RT-qPCR assay in cultured cells. Format: cell-based, human. The conditions noted are these: Homo sapiens, HEK293-H, read-out: EC1.5x for production of full length SMN2 mRNA. In outline:
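HEK293H cells stably carrying the SMN2-A minigene treated 24 h at 37° C with compound (DMSO, 200× stock), then lysed. Multiplex RT-qPCR (SMN primers 0.4 μM final; 40 cycles) measures full-length exon 7-containing minigene mRNA, normalized to GAPDH and to vehicle; EC1.5x derived and binned by stars.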

Series [2] relates to Smn protein. Description: Smn protein assay in cultured cells (SMN HTRF). In kind it is cell-based, human. The note with it: for EC1.5x (concentration giving 1.5-fold Smn protein increase): read-out: EC1.5x for Smn protein expression. The method, boiled down: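 Lysates in RIPA with protease inhibitors are incubated overnight at room temperature with HTRF anti-SMN antibodies. EC1.5x is derived from fold increase in ΔF over vehicle.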
(In general: TR-FRET usually uses a lanthanide donor and a delayed reading to cut background.)

Setting [3] is: HEK293H cells stably transfected with SMN2-A minigene, 24 hours, 7-point concentration curve, 1.5-fold relative to vehicle-treated cells.
Where [4] appears, read: SMA Type 1 patient fibroblast cells (GM03813), 48 hours, 7-point concentration curve, SMN HTRF, concentration producing 1.5 times Smn protein vs DMSO vehicle control.
Where [5] appears, read: SMA patient fibroblast cells, 48 hours, 7-point concentration data, fold increase relative to vehicle control (SMN HTRF).

Regarding `Cc1cn2cc(-c3cc4ccc(CCCN5CCC[C@@H]5CO)cc4oc3=O)nc2c(C)n1` [Compound 883, 3-(6,8-dimethylimidazo[1,2-a]pyrazin-2-yl)-7-{3-[(2R)-2-(hydroxymethyl)pyrrolidin-1-yl]propyl}-2H-chromen-2-one], the melting point (commonly the temperature, or range, at which the solid turns liquid) is 182 to 185 °C. The EC (1.5-fold) in series [1] (setting [3]) was under 0.1 µM. Also, the EC1.5x (concentration giving 1.5-fold Smn protein increase) in series [2] (setting [4]) was under 300 nM. In series [2] (setting [5]), the “maximum fold (Fold) increase of Smn protein” value (from here on “maximum fold (Fold) increase”) is reported as “***** (fold increase >1.65)”.

Molecule `O=c1oc2cc(N3CCN4CCC3CC4)ccc2cc1-c1cn2ccsc2n1` [Compound 438, 7-(1,4-diazabicyclo[3.2.2]non-4-yl)-3-(imidazo[2,1-b][1,3]thiazol-6-yl)-2H-chromen-2-one] had a melting point of over 300 °C. The EC (1.5-fold) in series [1] (24 h) fell in the range of 0.1 to 0.3 µM. Besides, in series [2], the “maximum fold (Fold) increase” value was “*** (key: *: maximum fold increase of ≤1.2; **: fold increase between >1.2 and ≤1.35; ***: fold increase between >1.35 and ≤1.5; ****: fold increase between >1.5 and ≤1.65; *****: fold increase >1.65)”; the EC1.5x (concentration giving 1.5-fold Smn protein increase) lay in the range of 1000 to 3000 nM.

`CC(CO)NCc1ccc2cc(-c3nc4c(Cl)cccc4s3)c(=O)oc2c1` (stereo not shown) [Compound 270, 3-(4-chloro-1,3-benzothiazol-2-yl)-7-{[(1-hydroxypropan-2-yl)amino]methyl}-2H-chromen-2-one] showed a melting point of 186 to 190 °C. Further, the EC (1.5-fold) in series [1] (setting [3]) is 1 to 3 µM. The “maximum fold (Fold) increase” value in series [2] (setting [5]) was “** (fold increase between >1.2 and ≤1.35)”.

The molecule `Cc1cn2cc(-c3cc4ccc(C5CCN(C6CCC6)CC5)cc4oc3=O)nc2c(C)n1` [Compound 821, 7-(1-cyclobutylpiperidin-4-yl)-3-(6,8-dimethylimidazo[1,2-a]pyrazin-2-yl)-2H-chromen-2-one] returned a melting point of 200 to 205 °C. Further, the EC (1.5-fold) in series [1] (setting [3]) was under 0.1 µM. In series [2] (setting [4]), the EC1.5x (concentration giving 1.5-fold Smn protein increase) was under 300 nM. For the same molecule, the “maximum fold (Fold) increase” value in series [2] (setting [5]) is recorded as “***** (fold increase >1.65)”.

`Cc1cn2cc(-c3cc4ccc(N5CCN(C)C(C)(C)C5)cc4oc3=O)nc2c(C)n1` [Compound 737, 3-(6,8-dimethylimidazo[1,2-a]pyrazin-2-yl)-7-(3,3,4-trimethylpiperazin-1-yl)-2H-chromen-2-one] had a melting point of 185 to 187 °C. In addition, in series [1] (setting [3]), the EC (1.5-fold) was under 0.1 µM. Also, the EC1.5x (concentration giving 1.5-fold Smn protein increase) in series [2] (setting [4]) was under 300 nM. Moreover, the “maximum fold (Fold) increase” value in series [2] (setting [5]) was “***** (fold increase >1.65)”.

As for `Cc1cn2cc(-c3cc4ccc(O[C@@H]5CCN(C)C5)cc4oc3=O)nc2c(C)n1` [Compound 889, 3-(6,8-dimethylimidazo[1,2-a]pyrazin-2-yl)-7-{[(3R)-1-methylpyrrolidin-3-yl]oxy}-2H-chromen-2-one], the melting point was 195 to 202 °C. Also, in series [1] (setting [3]), the EC (1.5-fold) was under 0.1 µM. For the same molecule, the EC1.5x (concentration giving 1.5-fold Smn protein increase) in series [2] (setting [4]) was under 300 nM. Further, in series [2] (setting [5]), the “maximum fold (Fold) increase” value is listed as “***** (fold increase >1.65)”.

Molecule `Cc1nc(Cl)cn2cc(-c3cc4ccc(N5CCN(C)[C@H](C)C5)cc4oc3=O)nc12` [Compound 726, 3-(6-chloro-8-methylimidazo[1,2-a]pyrazin-2-yl)-7-[(3R)-3,4-dimethylpiperazin-1-yl]-2H-chromen-2-one] displayed a melting point of 250 to 252 °C. The EC (1.5-fold) in series [1] (setting [3]) is under 0.1 µM. In addition, the EC1.5x (concentration giving 1.5-fold Smn protein increase) in series [2] (setting [4]) fell in the range of 300 to 1000 nM. In addition, the “maximum fold (Fold) increase” value in series [2] (setting [5]) is “**** (fold increase between >1.5 and ≤1.65)”.

`Cc1cn2cc(-c3cc4ccc(CCCN(C)C)cc4oc3=O)cc(F)c2n1` [Compound 909, 7-[3-(dimethylamino)propyl]-3-(8-fluoro-2-methylimidazo[1,2-a]pyridin-6-yl)-2H-chromen-2-one] showed a melting point of 185 to 188 °C. Besides, the EC (1.5-fold) in series [1] (setting [3]) was under 0.1 µM. Also, the EC1.5x (concentration giving 1.5-fold Smn protein increase) in series [2] (setting [4]) is under 300 nM. Besides, the “maximum fold (Fold) increase” value in series [2] (setting [5]) is recorded as “***** (fold increase >1.65)”.

`Cc1cn2cc(-c3cc4ccc(OCCN(C)C)cc4oc3=O)nc2c(C)n1` [Cpd 876, 7-[2-(dimethylamino)ethoxy]-3-(6,8-dimethylimidazo[1,2-a]pyrazin-2-yl)-2H-chromen-2-one]: the melting point was in the range of 251 to 253 °C. Also, the EC (1.5-fold) in series [1] (setting [3]) is under 0.1 µM. The EC1.5x (concentration giving 1.5-fold Smn protein increase) in series [2] (setting [4]) is under 300 nM. Also, in series [2] (setting [5]), the “maximum fold (Fold) increase” value is “**** (fold increase between >1.5 and ≤1.65)”.

As to `CCc1cc(C)cn2cc(-c3cc4ccc(N5CCNCC5)cc4oc3=O)nc12` [Compound 334, 3-(8-ethyl-6-methylimidazo[1,2-a]pyridin-2-yl)-7-(piperazin-1-yl)-2H-chromen-2-one], the melting point fell in the range of 198 to 208 °C. In series [1] (setting [3]), the EC (1.5-fold) was in the range of 0.1 to 0.3 µM. For the same molecule, the “maximum fold (Fold) increase” value in series [2] (setting [5]) is “* (maximum fold increase of ≤1.2)”.

In the case of `COc1cc(OC)cc(-c2cc3ccc(N4CCCNCC4)cc3oc2=O)c1` [Compound 387, 7-(1,4-diazepan-1-yl)-3-(3,5-dimethoxyphenyl)-2H-chromen-2-one], the melting point fell in the range of 238 to 240 °C. Moreover, the EC (1.5-fold) in series [1] (setting [3]) fell in the range of 3 to 30 µM. For the same molecule, the “maximum fold (Fold) increase” value in series [2] (setting [5]) is given as “* (maximum fold increase of ≤1.2)”.

Molecule `CCc1cccn2cc(-c3cc4ccc(N5CCN(C)CC5)cc4oc3=O)nc12` [Compound 358, 3-(8-ethylimidazo[1,2-a]pyridin-2-yl)-7-(4-methylpiperazin-1-yl)-2H-chromen-2-one] displayed a melting point of 137 to 141 °C. In series [1] (setting [3]), the EC (1.5-fold) lay within 1 to 3 µM. Also, the “maximum fold (Fold) increase” value in series [2] (setting [5]) was “*** (fold increase between >1.35 and ≤1.5)”.

For the molecule `O=C(O)C(F)(F)F.O=c1oc2cc(N3CCNCC3)ccc2cc1-c1nc(C(F)(F)F)cs1` [Compound 52, 7-(piperazin-1-yl)-3-[4-(trifluoromethyl)-1,3-thiazol-2-yl]-2H-chromen-2-one trifluoroacetate], the melting point is 221 to 229 °C. In addition, the EC (1.5-fold) in series [1] (setting [3]) was in the range of 0.3 to 1 µM. In addition, the “maximum fold (Fold) increase” value in series [2] (setting [5]) is given as “* (maximum fold increase of ≤1.2)”.

With `Cc1csc2nc(-c3cc4ccc(N5CCN(C)CC5)cc4oc3=O)cn12` [Compound 185, 3-(3-methylimidazo[2,1-b][1,3]thiazol-6-yl)-7-(4-methylpiperazin-1-yl)-2H-chromen-2-one], the melting point was in the range of 213 to 216 °C. The EC (1.5-fold) in series [1] (setting [3]) was 3 to 30 µM. In addition, in series [2] (setting [5]), the “maximum fold (Fold) increase” value is “* (maximum fold increase of ≤1.2)”.

Turning to `Cc1cn2cc(-c3cc4ccc(N5CCCN(C)CC5)cc4oc3=O)nc2s1` [Compound 153, 7-(4-methyl-1,4-diazepan-1-yl)-3-(2-methylimidazo[2,1-b][1,3]thiazol-6-yl)-2H-chromen-2-one], the melting point was in the range of 179 to 184 °C. In addition, the EC (1.5-fold) in series [1] (setting [3]) is 1 to 3 µM. The “maximum fold (Fold) increase” value in series [2] (setting [5]) is “*** (fold increase between >1.35 and ≤1.5)”.

For `Cc1cn2cc(-c3cc4ccc(CCN(C)C)cc4oc3=O)nc2c(C)n1` [Compound 864, 7-[2-(dimethylamino)ethyl]-3-(6,8-dimethylimidazo[1,2-a]pyrazin-2-yl)-2H-chromen-2-one], the melting point lay within 219 to 223 °C. Further, the EC (1.5-fold) in series [1] (setting [3]) is under 0.1 µM. Further, the EC1.5x (concentration giving 1.5-fold Smn protein increase) in series [2] (setting [4]) was under 300 nM. For the same molecule, the “maximum fold (Fold) increase” value in series [2] (setting [5]) is reported as “***** (fold increase >1.65)”.

As for `CCN1C[C@@H]2CN(c3ccc4cc(-c5cn6cc(C)nc(C)c6n5)c(=O)oc4c3)C[C@@H]2C1` [Compound 747, 3-(6,8-dimethylimidazo[1,2-a]pyrazin-2-yl)-7-[(3aR,6aS)-5-ethylhexahydropyrrolo[3,4-c]pyrrol-2(1H)-yl]-2H-chromen-2-one], the melting point was 231 to 237 °C. Further, the EC (1.5-fold) in series [1] (setting [3]) was under 0.1 µM. The EC1.5x (concentration giving 1.5-fold Smn protein increase) in series [2] (setting [4]) was under 300 nM. The “maximum fold (Fold) increase” value in series [2] (setting [5]) is on record as “***** (fold increase >1.65)”.

The molecule `CCN1CCCN(c2ccc3cc(-c4cc5cnc(C)cn5c4)c(=O)oc3c2)CC1` [Compound 667, 7-(4-ethyl-1,4-diazepan-1-yl)-3-(3-methylpyrrolo[1,2-a]pyrazin-7-yl)-2H-chromen-2-one] displayed a melting point of 130 to 133 °C. The EC (1.5-fold) in series [1] (setting [3]) was under 0.1 µM. Further, the EC1.5x (concentration giving 1.5-fold Smn protein increase) in series [2] (setting [4]) is under 300 nM. In addition, the “maximum fold (Fold) increase” value in series [2] (setting [5]) was “**** (fold increase between >1.5 and ≤1.65)”.

As for `Cc1cn2cc(-c3cc4ccc(C5CCN(CCO)CC5)cc4oc3=O)nc2c(C)n1` [Compound 750, 3-(6,8-dimethylimidazo[1,2-a]pyrazin-2-yl)-7-[1-(2-hydroxyethyl)piperidin-4-yl]-2H-chromen-2-one], the melting point was 207 to 212 °C. Further, the EC (1.5-fold) in series [1] (setting [3]) is under 0.1 µM. Also, the EC1.5x (concentration giving 1.5-fold Smn protein increase) in series [2] (setting [4]) was under 300 nM. Further, the “maximum fold (Fold) increase” value in series [2] (setting [5]) was “***** (fold increase >1.65)”.

`CN1CCN(c2ccc3cc(-c4cn5cccnc5n4)c(=O)oc3c2)CC1` [Compound 87, 3-(imidazo[1,2-a]pyrimidin-2-yl)-7-(4-methylpiperazin-1-yl)-2H-chromen-2-one] yielded a melting point of over 310 °C. The EC (1.5-fold) in series [1] (setting [3]) was in the range of 0.3 to 1 µM. The EC1.5x (concentration giving 1.5-fold Smn protein increase) in series [2] (setting [4]) was 1000 to 3000 nM. Moreover, in series [2] (setting [5]), the “maximum fold (Fold) increase” value was “**** (fold increase between >1.5 and ≤1.65)”.
